Reference: the NIST ThermoML archive (doi:10.1021/je700398k)

Details: Liquid

ClCC1CO1 (stereo unspecified) [1-chloro-2,3-epoxypropane]
Details | vapor or sublimation pressure [kPa]
315.67 K | 5.916
316.53 K | 6.183
318.81 K | 6.915
321.9 K | 8.015
324.03 K | 8.859
327.03 K | 10.18
330.21 K | 11.74
334.22 K | 14.01
334.77 K | 14.32
337.79 K | 16.3
339.71 K | 17.66
343.98 K | 21.05
345.99 K | 22.82
347.15 K | 23.9
350.87 K | 27.61
352.3 K | 29.16
354.46 K | 31.66
357.56 K | 35.49
359.92 K | 38.7
363.28 K | 43.68
367.42 K | 50.42
371.36 K | 57.63
375.06 K | 65.2
388.29 K | 98.82

CN1CCCCCC1=O [1-methylazacycloheptan-2-one]
Details | vapor or sublimation pressure [kPa]
402.95 K | 4.019
405.13 K | 4.39
411.63 K | 5.651
415.53 K | 6.531
420.7 K | 7.906
424.29 K | 8.986
428.38 K | 10.38
430.35 K | 11.12
434.66 K | 12.84
436.35 K | 13.6
443.09 K | 16.89
450.68 K | 21.39
458.3 K | 26.82
462.79 K | 30.5
468.95 K | 36.27
479.21 K | 47.69
510.6 K | 101.4

CN1CCCC1=O [N-methylpyrrolidone]
Details | vapor or sublimation pressure [kPa]
380.73 K | 4.742
383.12 K | 5.24
386.38 K | 5.98
387.92 K | 6.361
389.88 K | 6.862
393.04 K | 7.775
400.46 K | 10.29
403.85 K | 11.62
406.68 K | 12.87
408.96 K | 13.96
411.42 K | 15.22
413.77 K | 16.5
416.81 K | 18.28
420.94 K | 20.97
424.65 K | 23.65
427.56 K | 25.96
432.29 K | 30.08
435.85 K | 33.54
439.12 K | 36.99
441.74 K | 39.96
444.04 K | 42.73
446.64 K | 46.02
451.08 K | 52.18
457.46 K | 62.11
475.72 K | 99.4
